Measurements reported in PMC13128454, “Mutant p53 protein accumulation is selectively targetable by proximity-inducing drugs” (Nature Chemical Biology, 2025).
Where “and” joins values, the source holds several entries; their conditions need not be identical. Equal values may be shown once. Read-outs that look alike come from different tables or passages of the source.

Columns and labels:
Format in all cases: cell-based
[1] = tested on: Halo–p53-Y220C ΔTAD–mCherry 293T cells; experiment: annexin–PI staining; conditions: for P3_avg (P3 = early apoptotic) / P5_avg (P5 = late apoptotic): Cell_Line Y220C, proportion of cells; for avgprop_P3 / avgprop_P4 / avgprop_P5 / avgprop_P2 / P2_viable / P3_AnnexinPos_PIneg / P4_PIpos_AnnexinNeg / P5_PIpos_Annexinpos / prop_P3 / prop_P4 / prop_P5 / prop_P2: Y220C; for avgprop_P3: average proportion AnnexinPos PIneg; for avgprop_P4: average proportion PIpos AnnexinNeg; for avgprop_P5: average proportion PIpos Annexinpos; for avgprop_P2: average proportion viable; for P2_viable / P3_AnnexinPos_PIneg / P4_PIpos_AnnexinNeg / P5_PIpos_Annexinpos: event count; for P2_viable / P3_AnnexinPos_PIneg / P4_PIpos_AnnexinNeg / P5_PIpos_Annexinpos / prop_P3 / prop_P4 / prop_P5 / prop_P2: single replicate; for prop_P3: proportion AnnexinPos PIneg; for prop_P4: proportion PIpos AnnexinNeg; for prop_P5: proportion PIpos Annexinpos; for prop_P2: proportion viable
Description: Cells were plated in six-well plates and treated with varying concentrations of compounds for 1 day. Cells were stained with annexin V–AF488 and PI following the manufacturer’s instructions (Thermo Fisher, V13241) and analyzed by flow cytometry (Beckman CytoFLEX LX), using untreated cells to establish gates.

[2] = tested on: Halo–p53-Y220C ΔTAD–mCherry 293T cells; experiment: cell-cycle analysis (DNA content, DAPI flow cytometry); design: 4N / 8N / Right_of_Gate1 (replicates) / Right_of_Gate2 (replicates) / 2N: unit not given here; conditions: 1 day; for 2N / 4N / 8N / Right_of_Gate1 (replicates) / Right_of_Gate2 (replicates): Y220C
Description: Cells were split into a 10-cm dish at low confluency (20%) and grown overnight. Cells were synchronized using overnight treatment with palbociclib (150 nM), washed and split into a six-well plate for treatment with compound for 24 h. Cells were harvested by trypsinization, washed twice with cold 1× PBS, fixed by dropwise addition of ice-cold 70% ethanol while vortexing and incubated overnight (4 °C). Fixed samples were centrifuged at 1,000g for 5 min and 70% ethanol was removed. Cells were washed twice with 1× PBS + 1% BSA before DNA labeling with 1 µg ml^−1 DAPI for 10 min at room temperature, before being analyzed for DNA content by flow cytometry (Beckman CytoFLEX LX).

[3] = tested on: p53 luciferase transcriptional reporter in Huh7 cells; experiment: p53 luciferase reporter assay; conditions: for p53 luciferase reporter signal (normalized), replicates: Huh7
Description: (§1) Huh7 and MFE319 cell lines stably expressing a p53 reporter (Addgene, 90363)[59] were generated. Cells were plated in 384-well plates (1,500 cells per well) and treated with varying concentrations of compound. Then, 16 h after treatment, firefly luciferase substrate was added to the cells and luminescence was monitored using an EnVision 2105 multimode plate reader.

[4] = tested on: p53 luciferase transcriptional reporter in MFE319 cells; experiment: p53 luciferase reporter assay; conditions: for p53 luciferase reporter signal (normalized), replicates: MFE319
Description: as §1

[5] = CellTiter-Glo cell viability; conditions: human, BxPC-3 cells, BXPC3, 4 day, read-out: mean_norm (normalized viability)
Description: (§2) Cells were plated in 384-well plates (typically 1,500 cells per well) with varying concentrations of compounds, with a total volume of 50 μl per well. CTG reagent was added (25 μl) to the solutions, mixed and read out using an EnVision 2105 multimode plate reader.

[6] = tested on: Halo–p53-Y220C ΔTAD–mCherry 293T cells; experiment: 3-week culture with compound, mCherry^− fraction by FACS; conditions: 250 nM, 3 weeks
[7] = viability with doxycycline-inducible construct; conditions: human, dox 0, read-out: mean_norm (normalized viability)
Description: as §2

[8] = tested on: 293T cells expressing a dox inducible Halo–p53-Y220C ΔTAD–mCherry; experiment: viability with doxycycline-inducible construct
Description: as §2

[9] = Conc 0.38 (unit not given; p53-01 in μM, BI2536 in nM)
[10] = Conc 0.75 (unit not given; p53-01 in μM, BI2536 in nM)
[11] = Conc 1.50 (unit not given; p53-01 in μM, BI2536 in nM)

## CC[C@@H]1C(=O)N(C)c2cnc(Nc3ccc(C(=O)NCCOCCOCCOCCOCCC(=O)N4CCC(Nc5cccc6c5cc(C#CCNc5ccc(S(C)(=O)=O)cc5OC)n6CC(F)(F)F)CC4)cc3OC)nc2N1C1CCCC1 [p53-01, PMV6-PEG4-BI2536]
[1]; Concentration 0.75
  P3_avg (P3 = early apoptotic): 0.07971
  P5_avg (P5 = late apoptotic): 0.02225
  avgprop_P3: 0.07971
  avgprop_P4: 0.05038
  avgprop_P5: 0.02225
  avgprop_P2: 0.8477
  P2_viable: 1654 and 1707 and 1670
  P3_AnnexinPos_PIneg: 165 and 158 and 150
  P4_PIpos_AnnexinNeg: 95 and 98 and 106
  P5_PIpos_Annexinpos: 45 and 43 and 44
  prop_P3: 0.08423 and 0.07876 and 0.07614
  prop_P4: 0.04849 and 0.04885 and 0.05381
  prop_P5: 0.02297 and 0.02144 and 0.02234
  prop_P2: 0.8443 and 0.8509 and 0.8477
[1]; Concentration 1.5
  P3_avg (P3 = early apoptotic): 0.2575
  P5_avg (P5 = late apoptotic): 0.07698
  avgprop_P3: 0.2575
  avgprop_P4: 0.06957
  avgprop_P5: 0.07698
  avgprop_P2: 0.5959
  P2_viable: 912 and 887 and 871
  P3_AnnexinPos_PIneg: 381 and 378 and 395
  P4_PIpos_AnnexinNeg: 104 and 92 and 116
  P5_PIpos_Annexinpos: 109 and 111 and 125
  prop_P3: 0.253 and 0.2575 and 0.2621
  prop_P4: 0.06906 and 0.06267 and 0.07697
  prop_P5: 0.07238 and 0.07561 and 0.08295
  prop_P2: 0.6056 and 0.6042 and 0.578
[2]; 0.75 μM, synchronized cells
  DNA content: accumulation of Halo–p53-Y220C ΔTAD–mCherry 293T cells with 4 N DNA content
[2]; 1.5 μM
  cells with genome doubling (8 N DNA content): ~ 60%
[2]; [9]
  2N: 58.97
  4N: 39.03
  8N: 2.00
  Right_of_Gate1 (replicates): 41.03 and 37.34 and 37.12
  Right_of_Gate2 (replicates): 2.00 and 2.08 and 2.06
[2]; [10]
  2N: 39.09
  4N: 57.44
  8N: 3.47
  Right_of_Gate1 (replicates): 60.91 and 56.52 and 59.94
  Right_of_Gate2 (replicates): 3.47 and 3.35 and 3.58
[2]; [11]
  2N: 1.94
  4N: 38.53
  8N: 59.53
  Right_of_Gate1 (replicates): 98.06 (2×) and 98.33
  Right_of_Gate2 (replicates): 59.53 and 59.10 and 58.35
[3]; 16 h, PMV6 at doses of 1.25–10 μM
  induction of p53 reporter: no such effect
[3]; log Concentration (pM) 4.59176
  p53 luciferase reporter signal (normalized), replicates: 0.9363 (2×) and 1.029 and 0.989 (2×) and 0.8835
[3]; log Concentration (pM) 4.89279
  p53 luciferase reporter signal (normalized), replicates: 1.081 and 0.9758 and 1.0022 and 1.095 and 1.147 and 0.9363
[3]; log Concentration (pM) 5.19382
  p53 luciferase reporter signal (normalized), replicates: 0.8967 and 0.9231 and 0.9363 and 0.9758 and 1.095 and 1.081
[3]; log Concentration (pM) 5.49485
  p53 luciferase reporter signal (normalized), replicates: 1.015 and 0.9363 and 1.029 and 1.0022 and 1.108 and 1.095
[3]; log Concentration (pM) 5.79588
  p53 luciferase reporter signal (normalized), replicates: 1.055 (2×) and 1.095 and 0.9495 and 0.9231 (2×)
[3]; log Concentration (pM) 6.09691
  p53 luciferase reporter signal (normalized), replicates: 0.9099 and 0.9626 and 0.9231 and 1.0022 and 0.9758 and 0.8835
[3]; log Concentration (pM) 6.39794
  p53 luciferase reporter signal (normalized), replicates: 0.9495 and 1.029 and 0.9758 and 1.0022 and 1.015 and 1.042
[3]; log Concentration (pM) 6.69897
  p53 luciferase reporter signal (normalized), replicates: 0.9363 and 0.9231 and 1.042 and 1.095 and 1.068 and 0.8835
[3]; log Concentration (pM) 7
  p53 luciferase reporter signal (normalized), replicates: 0.9363 and 1.0022 (3×) and 1.015 and 0.9758
[4]; 16 h
  induction of p53 reporter: no induction of luciferase activity
[4]; log Concentration (pM) 4.59176
  p53 luciferase reporter signal (normalized), replicates: 0.9836 and 1.068 and 1.04 and 1.096 and 1.012 and 0.9977
[4]; log Concentration (pM) 4.89279
  p53 luciferase reporter signal (normalized), replicates: 1.026 and 1.11 and 0.9977 and 0.9555 and 1.04 and 1.096
[4]; log Concentration (pM) 5.19382
  p53 luciferase reporter signal (normalized), replicates: 0.9836 and 1.11 and 1.04 and 1.082 (2×) and 1.096
[4]; log Concentration (pM) 5.49485
  p53 luciferase reporter signal (normalized), replicates: 0.9696 and 0.9977 and 1.012 (2×) and 1.082 and 1.04
[4]; log Concentration (pM) 5.79588
  p53 luciferase reporter signal (normalized), replicates: 0.9696 and 1.096 (3×) and 1.068 and 0.9274
[4]; log Concentration (pM) 6.09691
  p53 luciferase reporter signal (normalized), replicates: 1.152 and 1.068 and 1.012 (2×) and 1.124 and 1.04
[4]; log Concentration (pM) 6.39794
  p53 luciferase reporter signal (normalized), replicates: 0.9977 (2×) and 1.068 and 1.096 and 1.012 and 0.9836
[4]; log Concentration (pM) 6.69897
  p53 luciferase reporter signal (normalized), replicates: 1.012 (4×) and 0.9977 and 1.04
[4]; log Concentration (pM) 7
  p53 luciferase reporter signal (normalized), replicates: 1.054 and 0.9836 (2×) and 1.082 (2×) and 0.8431
[5]; Concentration 39.0625
  viability at 4 day: 96%
[5]; Concentration 78.125
  viability at 4 day: 94.9%
[5]; Concentration 156.25
  viability at 4 day: 99%
[5]; Concentration 312.5
  viability at 4 day: 91%
[5]; Concentration 10000
  viability at 4 day: 44%
[5]; Concentration 20000
  viability at 4 day: 25.6%
[6]
  expansion of mCherry^− fraction: 6.9 fold
[7]; Concentration 156.25
  viability: 99.3%
[7]; Concentration 312.5
  viability: 95.6%
[7]; Concentration 625
  viability: 95.7%
[7]; Concentration 1250
  viability: 95.8%
[7]; Concentration 2500
  viability: 77.5%
[7]; Concentration 5000
  viability: 60.1%
[8]; dox 0, 100, 1000 ng/mL, 4 days
  change of potency upon doxycycline induction: approximately twofold
[8]; dox 0, Concentration 39.0625
  mean_norm (normalized viability): 0.9911
[8]; dox 0, Concentration 78.125
  mean_norm (normalized viability): 0.9922
[8]; dox 0, Concentration 10000
  mean_norm (normalized viability): 0.4681
[8]; dox 100, Concentration 39.0625
  mean_norm (normalized viability): 0.9915
[8]; dox 100, Concentration 78.125
  mean_norm (normalized viability): 1.002
[8]; dox 100, Concentration 156.25
  mean_norm (normalized viability): 0.9543
[8]; dox 100, Concentration 312.5
  mean_norm (normalized viability): 0.9412
[8]; dox 100, Concentration 625
  mean_norm (normalized viability): 0.8872
[8]; dox 100, Concentration 1250
  mean_norm (normalized viability): 0.7055
[8]; dox 100, Concentration 2500
  mean_norm (normalized viability): 0.6021
[8]; dox 100, Concentration 5000
  mean_norm (normalized viability): 0.3858
[8]; dox 100, Concentration 10000
  mean_norm (normalized viability): 0.3055
[8]; dox 1000, Concentration 39.0625
  mean_norm (normalized viability): 0.9926
[8]; dox 1000, Concentration 78.125
  mean_norm (normalized viability): 1.004
[8]; dox 1000, Concentration 156.25
  mean_norm (normalized viability): 1.0052
[8]; dox 1000, Concentration 312.5
  mean_norm (normalized viability): 0.8955
[8]; dox 1000, Concentration 625
  mean_norm (normalized viability): 0.8604
[8]; dox 1000, Concentration 1250
  mean_norm (normalized viability): 0.7628
[8]; dox 1000, Concentration 2500
  mean_norm (normalized viability): 0.5571
[8]; dox 1000, Concentration 5000
  mean_norm (normalized viability): 0.3298
[8]; dox 1000, Concentration 10000
  mean_norm (normalized viability): 0.194
